Test results as given in patent US9376499B2, “PAR-1 activation by metalloproteinase-1 (MMP-1)” (Tufts Medical Center, Inc., priority 2009, dated 2016).

Experiments:
platelets [1] = test: Collagen-dependent aggregation of gel-filtered human platelets (light transmittance); format: cell-based; settings: for inhibition (loss) of collagen-induced platelet aggregation: 5 μg/ml collagen, 1,10-PA 100 μM, MMP-200 200 nM, FN-439 3 μM, RWJ-56110 1 μM, PAR1 Ab 75 μg/ml, pepducins 3 μM, PPACK 200 μM, hirudin 1 U/ml
Experimental: Platelet pellets and their supernatants were prepared as follows. […] following established informed consent procedures. […] Alternatively, whole blood was obtained from Hartley Sprague guinea pigs (drawn from the vena cava) into 3% citrate plus 10 U/ml heparin. Washed platelets from the guinea pigs were prepared in PIPES buffer. Platelet aggregation was measured with a Chronolog 560VS/490-2D aggregometer using modified PIPES buffer as a blank. Samples were incubated for 5 min in the presence of inhibitors and 1.8 mM CaCl2 prior to addition of agonist. All reactions were in final volumes of 250 μl at 37° C. while stirring at 900 rpm.
The effect of pharmacologic blockage of metalloproteases or PAR1 on collagen-dependent platelet aggregation was then tested (see FIG. 5). Gel-filtered platelets from healthy individuals (supplemented with 0.3 mg/ml fibrinogen) were challenged with 5 μg/ml collagen in the presence or absence (0.2% DMSO vehicle) of the indicated inhibitors and allowed to stir at 900 rpm in an aggregometer cuvette (250 μL) at 37° C.
In FIG. 5A, platelet aggregation was monitored by light transmittance.

PAR1 [2] = test: Release of PAR1 N-terminal cleavage peptide from gel-filtered platelets (dot blot, IIaR-A antibody); format: cell-based, human; settings: for block of collagen-induced release of PAR1 N-terminal peptide: 5 μg/ml collagen, 10 min, 37° C., Ab 20 μg/ml, ARC 0.5 μM, ASA 1 mM
From the text: To further understand how collagen is able to activate significant amounts of endogenous MMP-1 collagenase activity on the surface of platelets, experiments were devised to determine if PAR-1 is cleaved in either an autocrine or paracrine manner following exposure to collagen. Using a monoclonal antibody raised against the amino-terminal thrombin-cleavage peptide region of PAR1, residues 32-46 (Loew et al., 2000), the relative abilities of thrombin, MMP-1 and collagen to cause cleavage of platelet PAR1 was assessed. Gel filtered platelets were treated for 10 min with thrombin (3 nM), MMP-1 (3 nM), collagen (5 μg/ml), in the presence or absence (PBS buffer) of 0.00013 U hirudin or 5 μM FN-439 at 37° C. Supernatants were concentrated 20-fold and applied to nitrocellulose membranes, then probed with the IIaR-A monoclonal antibody. The PAR1 N-terminal thrombin deavage peptide (A26-R41) and PAR1 flexible linker peptide (N-acetyl-T67-L84 -C) (Kuliopulos et al., 1999) served as positive and negative controls (100 ng), respectively.
These platelets were then stimulated with collagen (5 μg/ml) for 10 min. at 37° C. Supernatants were concentrated 20-fold and applied to nitrocellulose membranes, then probed with the IIaR-A monoclonal antibody. […] FN-439, or an MMP1-blocking antibody (20 μg/ml) but not by thrombin inhibitor, hirudin (see FIG. 1E, FIG. 1G).

platelets [3] = test: Platelet thrombus formation on collagen surface under arterial flow, CTI-anticoagulated whole blood; format: cell-based, human; settings: CTI 30 μg/mL, hirudin 0.0013 U/mL, aspirin 1 mM
Experimental: Collagen-activated platelets also provide a pro-coagulant surface and produce tissue factor, which aids in the production of thrombin (Giesen at al., 1999; Mackman, 2004; Schwertz et al., 2006).
Whole blood was anti-coagulated with CTI (30 μg/mL) to block the contact pathway, otherwise the experiments were conducted identically as in FIG. 6A. Hirudin was used as indicated at 0.0013 UImL.

Rho-GTP = test: Collagen-induced Rho-GTP activity in platelets (western blot); format: cell-based, human; settings: 5 or 20 μg/ml collagen or 10 nM MMP-1; ARC 0.5 μM, aspirin 1 mM
Experimental: In FIG. 5C, platelets were treated as in FIG. 5B and then Rho GTP activity was assessed by western blot.
Representative blots are shown at the bottom of FIGS. 5B-D. Data are the mean±s.d. of three experiments. P*<0.01, #<0.05.

p38 MAPK = test: Collagen-induced phospho-p38 MAPK in platelets (western blot); format: cell-based, human; settings: 5 or 20 μg/ml collagen or 10 nM MMP-1; ARC 0.5 μM, aspirin 1 mM
Experimental: The effect of pharmacologic blockage of metalloproteases or PAR1 on collagen-dependent platelet aggregation was then tested (see FIG. 5). […] Platelets were pre-incubated for 5 min with the thrombin inhibitors PPACK (200 μM) or hirudin (1 U/ml), the Zn-chelator 1,10-phenanthroline (1,10-PA; 100 μM), the broad spectrum metalloprotease inhibitor MMP-200 (200 nM), the MMP-1 inhibitor FN-439 (3 μM), the PAR1 ligand binding site inhibitor RWJ-56110 (1 μM), the PAR1 blocking antibody (75 μg/ml), the PAR1 pepducin lipopeptides P1pal-12 (3 μM) or P1pal-7 (3 μM), the PAR4 pepducin lipopeptide P4pal-10 (3 μM), MMP-8 inhibitor (25 nM) or MMP9/13 inhibitor (10 nM).
In FIG. 5B, platelets were treated as in FIG. 5A and then lysed with Laemmli sample buffer 5 min after addition of collagen, p38 MAPK activity was then assessed by western blot with a p38 MAPK phospho-Ab and total p38 loading was determined using a p38 MAPK antibody.

platelets [4] = test: Platelet thrombus formation on collagen surface under arterial flow, heparin-anticoagulated whole blood; format: cell-based, human; settings: heparin 10 U/mL; shear rate 1,000 s-1; FN-439 3 μM, RWJ-56110 1 μM, pepducins 3 μM, aspirin 1 mM
Experimental: Following incubation with inhibitors, the blood was perfused over a glass slide coated with fibrillar collagen type I.
A flow chamber (Glycotech) with Type-I fibrillar collagen-coated glass slides was mounted on the stage of an IMT-2 inverted microscope (Olympus) equipped with Retiga 1300 digital camera (QImaging) and 40× objective. One of the flow chamber inlets was connected to a syringe pump (Harvard Apparatus) calibrated to create a shear rate of 1,000^s-1. The whole blood pretreated with the various pharmacologic inhibitors was then perfused over the collagen-coated glass slide. After 2-15 min of perfusion, blood was removed from the flow chamber by gentle displacement with PIPES buffer and images of 8-10 fields were acquired using OpenLab software (Improvision). Acquired images were further analyzed using NIH Image 1.63 software. Images were first sharpened and the edges of separate platelets and platelet aggregates were determined. Following the adjustment of threshold, images were converted into the binary format, and the particle analysis function was activated to highlight the regions covered by platelets with the sensitivity set to one single adherent thrombocyte. For the conversion of pixels into square micrometers, a calibration curve was built using 2.5, 6, 20, 25, and 45 μm polystyrene beads (Polyscience) using acquisition conditions identical to the experimental. The mean area of formed thrombus was determined at 7 min. Area measurements in FIG. 6B represent the mean±s.e. of three separate experiments from five different blood donors.

PAR1 [5] = target: T1, PAR1 (Homo sapiens, UniProt P25116); test: PAR1-dependent RhoA activation (Rho-GTP) in platelets by tethered-ligand peptides; format: cell-based; settings: 1 μM RWJ-56110
T1 construct: able to cleave PAR1 on the surface of human platelets; endogenous in cells; host or cells: gel-filtered or washed human platelets
T1 sequence (P25116 22-425): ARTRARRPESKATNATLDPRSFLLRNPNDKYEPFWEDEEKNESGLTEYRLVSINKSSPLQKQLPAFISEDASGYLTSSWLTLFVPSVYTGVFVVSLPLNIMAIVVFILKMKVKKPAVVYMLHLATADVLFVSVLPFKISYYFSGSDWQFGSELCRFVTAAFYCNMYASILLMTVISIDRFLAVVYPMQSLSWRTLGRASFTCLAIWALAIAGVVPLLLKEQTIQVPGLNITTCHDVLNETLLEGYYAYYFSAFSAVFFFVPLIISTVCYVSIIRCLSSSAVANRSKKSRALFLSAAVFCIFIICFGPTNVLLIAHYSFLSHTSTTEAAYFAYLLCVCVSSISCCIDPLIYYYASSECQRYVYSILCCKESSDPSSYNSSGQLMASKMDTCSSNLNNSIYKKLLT
Experimental: Gel-filtered human platelets, supplemented with 0.3 mg/mL fibrinogen, were treated with 0.2% DMSO vehicle, or 30 μM SFLLRN (TRAP), PR-TRAP or reversed peptide (RP-TRAP), for 5 min at 37° C. in presence or absence of 1 μM RWJ-56110 as indicated. Platelets were lysed and Rho-GTP and total Rho was determined by Western analysis as described in the Experimental Procedures. Western bands were quantified by densitometry and results expressed relative to fold-increase from basal.

PAR1 [6] = target: T1, PAR1; test: MMP-1-induced platelet aggregation; format: cell-based; settings: 1 μM RWJ-56110
Experimental: In FIG. 4D, the induction of platelet aggregation by MMP-1 was determined. Gel-filtered platelets were challenged with MMP-1 in the presence or absence (0.2% DMSO vehicle) of the PAR1 inhibitor 1 μM RWJ-56110.

platelets [7] = test: Clot retraction assay in human platelet-rich plasma, collagen initiated; format: cell-based; settings: 2.5-5 μg/ml collagen (titration 1-20 μg/ml); FN-439 5 μM, RWJ-56110 1 μM, MMP9/13 Inh 10 nM; 90 or 240 min
Experimental: Platelet rich plasma (PRP) was isolated from human whole blood anti-coagulated with 4% sodium citrate. Clot retraction assays were done in 1 ml volumes containing 800 μl PBS and 200 μl PRP plus 10 μl red blood cells to enhance contrast. Samples were pretreated with FN-439 (5 μM), MMP9/13 Inh (10 nM) or RWJ-56110 (1 μM) for 15 min and clot formation was initiated with 1-20 μg/ml type I fibrillar collagen. Samples were incubated at 37° C. for 90 or 240 min and then photographed with a digital camera. Each photograph in FIG. 6I is representative of three independent experiments.

PAR1 [8] = target: T1, PAR1; test: Platelet shape change (decrease in light transmittance); format: cell-based; settings: 1 μM RWJ-56110
Experimental: In FIG. 3C, the ability of the […] peptide (PR-TRAP) to induce a change in platelet shape was determined. Washed human platelets were pretreated with 2 mM EGTA and then treated with the indicated agonists in the presence or absence of 1 μM RWJ-56110 while stirring at 1100 rpm. The decrease in light transmittance is an indication of the platelet shape change reaction.
In FIG. 4B, the ability of MMP-1 to induce platelet shape change was determined. Washed human platelets were pretreated with 2 mM EGTA and then challenged with MMP-1 in the presence or absence of 1 μM RWJ-56110 while stirring at 1100 rpm. Shape change was measured as described above.

[9] = Carotid artery FeCl3 injury arterial thrombosis model; format: in vivo, guinea pig; settings: RWJ-56110 0.5 mg/kg; P1pal-7 0.13 mg/kg i.v.
From the text: To assess the efficacy on arterial thrombosis by blockade of thrombin, MMP-1, or PAR1, a standard carotid artery FeCl3 injury model was used in guinea pigs. FeCl3 causes denudation of the artery and exposure of type I collagen and other subendothelial matrix proteins. The effects of blocking thrombin with bivalirudin, MMP-1 with FN-439, and PAR1 with either the small molecule antagonist RWJ-56110 or the P1pal-7 pepducin on arterial thrombosis were then compared using a dopier probe.
For these arterial thrombosis experiments, 10 min after i.v. administration of vehicle (−), bivalirudin, RWJ-56110, P1 pal-7 or FN-439 (n=4-5) through the jugular vein at the indicated concentrations, the right carotid arteries were injured for 20 min using a 24 mm^2 piece of Bio-Rad Trans-Blot paper soaked in 20% FeCl3. Arterial flow 5 mm distal to the site of injury was measured with a 0.5 V Doppler probe (Transonic Systems). An arterial occlusion was defined as a flow rate of <0.01 V for ≧5 min. Doppler measurements were terminated at the 30 min time point following injury (* designates p<0.05).

PAR1 [10] = target: T1, PAR1; test: MMP-1-induced PAR1-dependent calcium flux in platelets; format: cell-based; settings: RWJ-56110
Experimental: In FIG. 4C, the induction of PAR1-dependent calcium fluxes by MMP-1 was measured. Calcium flux measurements of gel filtered platelets following challenge with MMP-1 in the presence or absence of RWJ-56110 were performed at 25° C. with emission recorded at 510 nm and dual excitation at 340 and 380 nm as described (Kuliopulos. 1999).

MAPKAP-K2 = test: Collagen activation of phospho-MAPKAP-K2 in platelets (data not shown); format: cell-based, human

Row | Compound | inhibition (loss) of collagen-induced platelet aggregation (platelets [1]) | effect on size of platelet micro-thrombi on collagen surfaces (platelets [3]) | block of collagen-induced release of PAR1 N-terminal peptide (PAR1 [2]) | effect on activation of Rho-GTP (Rho-GTP) | effect on activation of phospho-p38 MAPK (p38 MAPK) | attenuation of growth rate and size of platelet aggregate strings (platelets [4]) | other results
1 | hirudin | no effect | no effect |  |  |  |  | block of thrombin-induced release of N-terminal cleavage peptide of PAR1 (PAR1 [2]; 3 nM thrombin, 0.00013 U hirudin): blocked
2 | CSCCNc1nc(SCCC(F)(F)F)nc2c1ncn2[C@@H]1O[C@H](COP(=O)(O)OP(=O)(O)C(Cl)(Cl)P(=O)(O)O)[C@@H](O)[C@H]1O [AR-C69931MX] |  |  | no effect | no effect | no effect |  | suppression of aggregation to collagen (platelets [1]; ARC 0.5 μM, aspirin 1 mM): could still suppress
3 | CC(=O)Oc1ccccc1C(=O)O [aspirin] |  | did not affect | no effect | no effect | no effect | little or no effect | 
4 | NCC[C@H](NC(=O)[C@H](Cc1ccc(F)c(F)c1)NC(=O)Nc1ccc2c(CN3CCCC3)cn(Cc3c(Cl)cccc3Cl)c2c1)C(=O)NCc1ccccc1 [RWJ-56110] | 50% |  |  |  |  | ~75% | block of signaling induced by PR-TRAP (PAR1 [5]): completely blocked; inhibition of MMP-1-elicited platelet aggregation (PAR1 [6]): inhibited; inhibition of clot formation and retraction (platelets [7]): nearly identical pattern of inhibition; block of PR-TRAP-induced platelet shape change (PAR1 [8]): completely blocked; inhibition of MMP-1-elicited platelet shape change (PAR1 [8]): inhibited; effect on mean occlusion time [9]: did not appreciably affect; inhibition of MMP-1-elicited calcium mobilization (PAR1 [10]): inhibited; block of collagen-activation of phospho-MAPKAP-K2 (MAPKAP-K2): blocked
